What was measured:
Assay type in all cases: cell-based, human
A375 cells = test: A375 cell growth inhibition test (MTT assay); details: 72 h
Protocol: A375 Cell Growth Inhibition Test (MTT Assay)
(§1) II. Reagents and Consumable Materials
Culture medium: 90% DMEM+10% FBS (fetal calf serum); Pancreatin (0.25% (w/v) solution was formulated with PBS, 0.53 mM of EDTA was added in the formulation); PBS; 96-well culture plate.
(§2) 1. A plate (10 cm) of cells in logarithmic growth phase that were normally cultured was collected;
(§3) 2. The culture solution was sucked out. The plate was washed with 5 mL of PBS once or twice;
(§4) 3. PBS was sucked out. 1.5 mL of 0.25% pancreatin was added to the plate to infiltrate the cells for 1 min;
(§5) 4. The culture plate was placed in an incubator. Digestion was carried out for about 5 min at 37° C.;
(§6) 5. 3 mL of complete culture solution was added to the culture plate to stop the digestion. The cells were carefully scoured with micropipette (1 ml) to give a uniform cell suspension. The suspension was implanted into a 96-well cell culture disc by 3000 cells/100 μL per well. The culture plate was incubated overnight under 5% CO2 at 37° C. In day 2, 100 μL of culture solution comprising a compound was added in each well. The plate was further incubated for 72 h under 5% CO2 at 37° C.;
(§7) 6. The culture solution was sucked out;
(§8) 7. 100 μL of serum-free culture solution containing 0.5 mg/mL MTT was added in each well. The plate was incubated for 3 h;
(§9) 8. The culture solution was carefully sucked out;
(§10) 9. 100 μL of DMSO was added in each well and vibrated to dissolve;
(§11) 10. OD values were determined at 490 nM.
(§12) IV. Results and Treatments
(§13) 1. Calculation of Relative Inhibition Ratio The inhibition ratio of a compound on cell growth=(PC−n)/(PC−NC)×100%
(§14) PC: OD values of cells after normal growth in control wells without a compound;
(§15) n: OD values of cells after growth in test wells with a compound;
(§16) NC: Background OD values of blank wells without a compound and cells.

A431 cells = test: A431 cell growth inhibition test (MTT assay); details: 72 h
Protocol: A431 Cell Growth Inhibition Test (MTT Assay)
as §1
Culture medium: 45% DMEM+45% F12+10% FBS (fetal calf serum); Pancreatin (0.25% (w/v) solution was formulated with PBS, 0.53 mM of EDTA was added in the formulation); PBS; 96-well culture plate.
as §2, §3, §4, §5
as §6, with “mL)” for “ml)”, “2500” for “3000”
as §7, §8, §9, §10, §11, §12, §13, §14, §15, §16

MCF-7 cells = test: MCF-7 cell growth inhibition test (SRB assay); details: 73 h
Protocol: MCF-7 Cell Growth Inhibition Test (SRB Assay)
as §1
Culture medium: 90% EMEM+10% FBS; Pancreatin (0.25% (w/v) solution was formulated with PBS, 0.53 mM of EDTA was added in the formulation); PBS; 96-well culture plate.
as §2, §3
3. 1.5 mL of 0.25% pancreatin was added to the plate to infiltrate the cells;
4. The pancreatin was sucked out. The culture plate was placed in an incubator. Digestion was carried out for about 3 min at 37° C.;
as §6, with “5. 4” for “5. 3”, “(1 mL)” for “(1 ml)”, “uniform single” for “uniform”, “culture plate” for “culture disc”, “by 10000” for “by 3000”, “for 73” for “for 72”
6. The culture solution was sucked out. 100 uL of TCA fixed cells which were diluted to 10% were added to each well. The plate was kept in a refrigerator for 1 h at 4° C.
7. TCA stationary liquid was sucked out. Each well was washed with 150 μL of ddH2O five times;
8. After the stationary liquid was cleansed, the plate was dried in the air at the room temperature;
9. 60 μL of SRB staining solution was added in each well. The well was stained for 15 min at the room temperature;
10. The SRB staining solution was sucked out. Each well was washed with 150 μL of 1% glacial acetic acid five times;
11. After the SRB staining solution was cleansed, the plate was dried in the air at the room temperature;
12. 100 μL of 10 mM Tris was added in each well. The plate was vibrated to dissolve out SRB;
13. OD values were determined at 570 nM.
as §12
1. Calculation of Relative Inhibition Ratio The inhibition ratio of a compound on cell growth=(PC−n)/(PC−NC)×100% […]

BxPc-3 cells = test: BxPc-3 cell growth inhibition test (MTT assay); details: growth inhibition at 2000 nM, 70 h
Method in brief: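 BxPC-3 human pancreatic cancer cells at 5000 per well in RPMI-1640 with 10% FBS were treated with compound from day 2 for 70 h at 37 °C, 5% CO2. Viability was measured by MTT (0.5 mg/mL, 3 h) with DMSO solubilisation and OD 490 nm. Inhibition ratio = (PC−n)/(PC−NC)×100%.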

MDA-MB-453 cells = test: MDA-MB-453 cell growth inhibition test (SRB assay); details: growth inhibition at 2000 nM, 69.5 h
Method in brief: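 MDA-MB-453 cells (7000/well) in L15 with 10% FBS were seeded overnight, then exposed to compound for 69.5 h at 37 °C and 5% CO2. After TCA fixation and SRB staining, dye was solubilised in Tris and OD read at 570 nm. Inhibition = (PC−n)/(PC−NC)×100%.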

Compound	IC50 (A375 cells)	IC50 (A431 cells)	IC50 (MCF-7 cells)	Inhibition Ratio (%) (BxPc-3 cells)	Inhibition Ratio (%) (MDA-MB-453 cells)
COc1cccc2c1C(=O)c1c(O)c3c(c(O)c1C2=O)CC(O)(C(=O)COC(=O)CCC(=O)O)CC3OC1CC(n2cccc2)C(O)C(C)O1 (stereo not shown) [Compound A, 3′-pyrrolyldoxorubicin-14-oxo-succinic acid monoester, reference compound]	207 nM	68 nM	785 nM		
CC(=O)O.COc1cccc2c1C(=O)c1c(O)c3c(c(O)c1C2=O)CC(O)(C(=O)COC(=O)CCC(=O)NCCCN1CCN(C)CC1)CC3O[C@H]1C[C@H](n2cccc2)[C@H](O)[C@H](C)O1 (stereo partly drawn) [Example 81, 10-((3′-(pyrrol-1-yll)-2′,3′,6′-trideoxy-alphal-l-lyxo-hexylpyranyl)oxy)-7,8,9,10-tetrahydro-6,8,11-trihydroxy-13-oxo-14-(4-((3-(4-methylpiperazin-1-yl)propyl)amino)-4-oxo-butyrato)-1-methoxy-5,12-naphthalenedione acetate]	67 nM	42 nM	225 nM	80.7%	72%
COc1cccc2c1C(=O)c1c(O)c3c(c(O)c1C2=O)CC(O)(C(=O)COC(=O)CCC(=O)NCCOCCO)CC3OC1CC(n2cccc2)C(O)C(C)O1 (stereo not shown) [Example 62]				82.5%	83.7%

— patent US9670242B2, “Tetracyclic anthraquinone derivatives” (Tianjin Hemay Bio-Tech Co., Ltd, priority 2012, dated 2017)
